Patent publication US20100298141A1, “SUBSTITUTED PYRIDINE N-OXIDE HERBICIDES” (E. I. DU PONT DE NEMOURS AND COMPANY, priority 2007, published 2010)

Legend:
velvetleaf [1] = test: Test A pre-/postemergence greenhouse test; assay type: in vivo, Abutilon theophrasti; conditions: for Plant response rating, Velvetleaf: 0 to 100 scale where 0 is no effect and 100 is complete control; for Velvetleaf plant response rating: 0 to 100 scale
Summary of the method: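 Seeds sown in a loam soil–sand blend got a preemergence directed soil spray of compound in a non-phytotoxic solvent mixture containing surfactant. Postemergence sprays of the same formulation went at the same time onto plants 2–10 cm tall at the one- to two-leaf stage. Injury was scored visually against untreated controls after about ten days in the greenhouse.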

blackgrass = test: Test C pre-/postemergence test; assay type: in vivo, Alopecurus myosuroides; conditions: for Plant response rating, Blackgrass: 31 g ai/ha, scale 0 to 100 (0 no effect, 100 complete control)
Summary of the method: (§1)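 Compounds in a non-phytotoxic solvent with surfactant applied preemergence to seeded pots and, at the same time, postemergence to plants 2–18 cm tall (1- to 4-leaf stage). Paddy tests: pots flooded to 3 cm, compound applied into the water, depth held throughout.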

downy brome = test: Test C pre-/postemergence test; assay type: in vivo, Bromus tectorum; conditions: for Plant response rating, Bromegrass, Downy: 31 g ai/ha, scale 0 to 100 (0 no effect, 100 complete control)
Summary of the method: as §1

green foxtail = test: Test C pre-/postemergence test; assay type: in vivo, Setaria viridis; conditions: for Plant response rating, Foxtail, Green: 31 g ai/ha, scale 0 to 100 (0 no effect, 100 complete control)
Summary of the method: as §1

Italian ryegrass = test: Test C pre-/postemergence test; assay type: in vivo, Lolium multiflorum; conditions: for Plant response rating, Ryegrass, Italian: 31 g ai/ha, scale 0 to 100 (0 no effect, 100 complete control)
Summary of the method: as §1

wild oat = test: Test C pre-/postemergence test; assay type: in vivo, Avena fatua; conditions: for Plant response rating, Oat, Wild: 31 g ai/ha, scale 0 to 100 (0 no effect, 100 complete control)
Summary of the method: as §1

catchweed bedstraw = test: Test C pre-/postemergence test; assay type: in vivo, Galium aparine; conditions: for Plant response rating, Galium: 31 g ai/ha, scale 0 to 100 (0 no effect, 100 complete control)
Summary of the method: as §1

cocklebur = test: Test C pre-/postemergence test; assay type: in vivo, Xanthium strumarium; conditions: for Plant response rating, Cocklebur: 31 g ai/ha, scale 0 to 100 (0 no effect, 100 complete control)
Summary of the method: as §1

corn = test: Test C pre-/postemergence test; assay type: in vivo, Zea mays; conditions: for Plant response rating, Corn: 31 g ai/ha, scale 0 to 100 (0 no effect, 100 complete control)
Summary of the method: as §1

woolly cupgrass = test: Test C pre-/postemergence test; assay type: in vivo, Eriochloa villosa; conditions: for Plant response rating, Cupgrass, Woolly: 31 g ai/ha, scale 0 to 100 (0 no effect, 100 complete control)
Summary of the method: as §1

giant foxtail = test: Test C pre-/postemergence test; assay type: in vivo, Setaria faberii; conditions: for Plant response rating, Foxtail, Giant: 31 g ai/ha, scale 0 to 100 (0 no effect, 100 complete control)
Summary of the method: as §1

johnsongrass = test: Test C pre-/postemergence test; assay type: in vivo, Sorghum halepense; conditions: for Plant response rating, Johnsongrass: 31 g ai/ha, scale 0 to 100 (0 no effect, 100 complete control)
Summary of the method: as §1

morningglory = test: Test C pre-/postemergence test; assay type: in vivo, Ipomoea coccinea; conditions: for Plant response rating, Morningglory: 31 g ai/ha, scale 0 to 100 (0 no effect, 100 complete control)
Summary of the method: as §1

soybean = test: Test C pre-/postemergence test; assay type: in vivo, Glycine max; conditions: for Plant response rating, Soybean: 31 g ai/ha, scale 0 to 100 (0 no effect, 100 complete control)
Summary of the method: as §1

velvetleaf [2] = test: Test C pre-/postemergence test; assay type: in vivo, Abutilon theophrasti; conditions: for Plant response rating, Velvetleaf: 31 g ai/ha, scale 0 to 100 (0 no effect, 100 complete control)
Summary of the method: as §1

duck salad = test: Test C flooded paddy test; assay type: in vivo, Heteranthera limosa; conditions: Flood
Summary of the method: (§2)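 Ratings were visual and made relative to untreated controls after 13 to 15 greenhouse days.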

barnyardgrass = test: Test C flooded paddy test; assay type: in vivo, Echinochloa crus-galli; conditions: Flood
Summary of the method: as §2

[3] = Postemergence, 500 g ai/ha, 0 is no effect, 100 is complete control
[4] = Preemergence, 125 g ai/ha, 0 no effect, 100 complete control
[5] = 62 g ai/ha, Preemergence, scale 0 to 100
[6] = 125 g ai/ha, preemergence, scale 0 (no effect) to 100 (complete control)
[7] = preemergence, 250 g ai/ha, scale 0 (no effect) to 100 (complete control)
[8] = 62 g ai/ha, scale 0 to 100 (0 no effect, 100 complete control)
[9] = 250 g ai/ha, scale 0 to 100, 0 no effect, 100 complete control, 13 to 15 days
[10] = 62 g ai/ha, scale 0 to 100, 0 no effect, 100 complete control, 13 to 15 days

SMILES: Cn1nc(C(F)(F)F)c(C[S+]([O-])c2cccc[n+]2[O-])c1OCC(F)F (stereo not shown) [Compound 75]
- Plant response rating, Velvetleaf (velvetleaf [1]; Postemergence, 125 g ai/ha): 40
- Velvetleaf plant response rating (velvetleaf [1]; [3]): 80
- Velvetleaf plant response rating (velvetleaf [1]; [4]): 60
- Plant response rating, Velvetleaf (velvetleaf [1]; Preemergence, 500 g ai/ha): 100
- Blackgrass plant response rating (blackgrass; [5]): 100
- Blackgrass plant response rating (blackgrass; [6]): 100
- Plant response rating, Blackgrass (blackgrass; Preemergence): 60
- Blackgrass plant response rating (blackgrass; [7]): 100
- Bromegrass, Downy plant response rating (downy brome; [5]): 50
- Bromegrass, Downy plant response rating (downy brome; [6]): 85
- Plant response rating, Bromegrass, Downy (downy brome; Preemergence): 40
- Bromegrass, Downy plant response rating (downy brome; [7]): 90
- Foxtail, Green plant response rating (green foxtail; [5]): 98
- Foxtail, Green plant response rating (green foxtail; [6]): 98
- Plant response rating, Foxtail, Green (green foxtail; Preemergence): 80
- Foxtail, Green plant response rating (green foxtail; [7]): 100
- Ryegrass, Italian plant response rating (Italian ryegrass; [5]): 70
- Ryegrass, Italian plant response rating (Italian ryegrass; [6]): 100
- Plant response rating, Ryegrass, Italian (Italian ryegrass; Preemergence): 0
- Ryegrass, Italian plant response rating (Italian ryegrass; [7]): 100
- Oat, Wild plant response rating (wild oat; [5]): 40
- Oat, Wild plant response rating (wild oat; [6]): 70
- Plant response rating, Oat, Wild (wild oat; Preemergence): 0
- Oat, Wild plant response rating (wild oat; [7]): 80
- Galium plant response rating (catchweed bedstraw; [5]): 100
- Galium plant response rating (catchweed bedstraw; [6]): 100
- Plant response rating, Galium (catchweed bedstraw; Preemergence): 80
- Galium plant response rating (catchweed bedstraw; [7]): 100
- Cocklebur plant response rating (cocklebur; [5]): 0
- Cocklebur plant response rating (cocklebur; [6]): 0
- Plant response rating, Cocklebur (cocklebur; Preemergence): 0
- Cocklebur plant response rating (cocklebur; [7]): 10
- Corn plant response rating (corn; [5]): 60
- Corn plant response rating (corn; [6]): 95
- Plant response rating, Corn (corn; Preemergence): 60
- Corn plant response rating (corn; [7]): 98
- Cupgrass, Woolly plant response rating (woolly cupgrass; [5]): 85
- Cupgrass, Woolly plant response rating (woolly cupgrass; [6]): 100
- Plant response rating, Cupgrass, Woolly (woolly cupgrass; Preemergence): 85
- Cupgrass, Woolly plant response rating (woolly cupgrass; [7]): 100
- Foxtail, Giant plant response rating (giant foxtail; [5]): 85
- Foxtail, Giant plant response rating (giant foxtail; [6]): 100
- Plant response rating, Foxtail, Giant (giant foxtail; Preemergence): 80
- Foxtail, Giant plant response rating (giant foxtail; [7]): 100
- Johnsongrass plant response rating (johnsongrass; [5]): 85
- Johnsongrass plant response rating (johnsongrass; [6]): 100
- Plant response rating, Johnsongrass (johnsongrass; Preemergence): 50
- Johnsongrass plant response rating (johnsongrass; [7]): 100
- Morningglory plant response rating (morningglory; [5]): 100
- Morningglory plant response rating (morningglory; [6]): 100
- Plant response rating, Morningglory (morningglory; Preemergence): 30
- Morningglory plant response rating (morningglory; [7]): 100
- Soybean plant response rating (soybean; [5]): 98
- Soybean plant response rating (soybean; [6]): 100
- Plant response rating, Soybean (soybean; Preemergence): 0
- Velvetleaf plant response rating (velvetleaf [2]; [5]): 100
- Velvetleaf plant response rating (velvetleaf [2]; [6]): 100
- Plant response rating, Velvetleaf (velvetleaf [2]; Preemergence): 100
- Velvetleaf plant response rating (velvetleaf [2]; [7]): 100
- Plant response rating, Ducksalad (duck salad; [8]): 40
- Plant response rating, Ducksalad (duck salad; [9]): 85
- Plant response rating, Barnyardgrass (barnyardgrass; [8]): 0
- Plant response rating, Barnyardgrass (barnyardgrass; [9]): 45

SMILES: CC(c1c(C(F)(F)F)nn(CC(F)(F)F)c1Cl)[S+]([O-])c1cccc[n+]1[O-] (stereo not shown) [Compound 46]
- Plant response rating, Velvetleaf (velvetleaf [1]; Postemergence, 125 g ai/ha): 30
- Velvetleaf plant response rating (velvetleaf [1]; [3]): 40
- Velvetleaf plant response rating (velvetleaf [1]; [4]): 0
- Plant response rating, Velvetleaf (velvetleaf [1]; Preemergence, 500 g ai/ha): 50
- Blackgrass plant response rating (blackgrass; [5]): 100
- Blackgrass plant response rating (blackgrass; [6]): 100
- Plant response rating, Blackgrass (blackgrass; Preemergence): 70
- Blackgrass plant response rating (blackgrass; [7]): 100
- Bromegrass, Downy plant response rating (downy brome; [5]): 0
- Bromegrass, Downy plant response rating (downy brome; [6]): 10
- Plant response rating, Bromegrass, Downy (downy brome; Preemergence): 0
- Bromegrass, Downy plant response rating (downy brome; [7]): 15
- Foxtail, Green plant response rating (green foxtail; [5]): 98
- Foxtail, Green plant response rating (green foxtail; [6]): 100
- Plant response rating, Foxtail, Green (green foxtail; Preemergence): 95
- Foxtail, Green plant response rating (green foxtail; [7]): 100
- Ryegrass, Italian plant response rating (Italian ryegrass; [5]): 55
- Ryegrass, Italian plant response rating (Italian ryegrass; [6]): 80
- Plant response rating, Ryegrass, Italian (Italian ryegrass; Preemergence): 0
- Ryegrass, Italian plant response rating (Italian ryegrass; [7]): 100
- Oat, Wild plant response rating (wild oat; [5]): 20
- Oat, Wild plant response rating (wild oat; [6]): 20
- Plant response rating, Oat, Wild (wild oat; Preemergence): 0
- Oat, Wild plant response rating (wild oat; [7]): 50
- Galium plant response rating (catchweed bedstraw; [5]): 0
- Galium plant response rating (catchweed bedstraw; [6]): 85
- Plant response rating, Galium (catchweed bedstraw; Preemergence): 0
- Galium plant response rating (catchweed bedstraw; [7]): 90
- Cocklebur plant response rating (cocklebur; [5]): 0
- Cocklebur plant response rating (cocklebur; [6]): 0
- Plant response rating, Cocklebur (cocklebur; Preemergence): 0
- Cocklebur plant response rating (cocklebur; [7]): 10
- Corn plant response rating (corn; [5]): 0
- Corn plant response rating (corn; [6]): 0
- Plant response rating, Corn (corn; Preemergence): 0
- Corn plant response rating (corn; [7]): 55
- Cupgrass, Woolly plant response rating (woolly cupgrass; [5]): 80
- Cupgrass, Woolly plant response rating (woolly cupgrass; [6]): 95
- Plant response rating, Cupgrass, Woolly (woolly cupgrass; Preemergence): 80
- Cupgrass, Woolly plant response rating (woolly cupgrass; [7]): 95
- Foxtail, Giant plant response rating (giant foxtail; [5]): 100
- Foxtail, Giant plant response rating (giant foxtail; [6]): 100
- Plant response rating, Foxtail, Giant (giant foxtail; Preemergence): 85
- Foxtail, Giant plant response rating (giant foxtail; [7]): 100
- Johnsongrass plant response rating (johnsongrass; [5]): 80
- Johnsongrass plant response rating (johnsongrass; [6]): 90
- Plant response rating, Johnsongrass (johnsongrass; Preemergence): 40
- Johnsongrass plant response rating (johnsongrass; [7]): 100
- Morningglory plant response rating (morningglory; [5]): 100
- Morningglory plant response rating (morningglory; [6]): 100
- Plant response rating, Morningglory (morningglory; Preemergence): 100
- Morningglory plant response rating (morningglory; [7]): 100
- Soybean plant response rating (soybean; [5]): 0
- Soybean plant response rating (soybean; [6]): 0
- Plant response rating, Soybean (soybean; Preemergence): 0
- Soybean plant response rating (soybean; [7]): 25
- Velvetleaf plant response rating (velvetleaf [2]; [5]): 0
- Velvetleaf plant response rating (velvetleaf [2]; [6]): 0
- Plant response rating, Velvetleaf (velvetleaf [2]; Preemergence): 0
- Velvetleaf plant response rating (velvetleaf [2]; [7]): 60
- Plant response rating, Ducksalad (duck salad; [10]): 10
- Plant response rating, Ducksalad (duck salad; [9]): 20
- Plant response rating, Barnyardgrass (barnyardgrass; [10]): 10
- Plant response rating, Barnyardgrass (barnyardgrass; [9]): 60
